The assay has as its system substance P. The experiment in a line: Clinical observation: relief of symptoms caused by acute and chronic excessive substance P. It is filed as in vivo, human.

On to `[N-]=[N+]=O` [nitrous oxide], for which, for the setting “about 20 minutes of nitrous oxide every about 4-6 hours”, the “relief of symptoms of COVID-19 and asthma” value is recorded as “may be relieved”. For the same compound, the “relief of symptoms of COPD and asthma” value (nitrous oxide every about 4-6 hours) is recorded as “ray be relived”.

The record behind these values is US12599625B2, “Treatment of ARDS and other conditions caused by acutely elevated cytokine levels and post ARDS chronic cytokine production using inhaled anesthetics” (priority 2021, dated 2026).
